Laboratory results as given in US20210386705A1, “APPLICATION OF CHIGLITAZAR AND RELATED COMPOUNDS THEREOF” (SHENZHEN CHIPSCREEN BIOSCIENCES CO., LTD., priority 2018, published 2021).

Tests used:
[1] = test system: α-smooth muscle actin (α-SMA); assay: TGF-β1-activated hepatic stellate cells, α-SMA gene expression (qPCR); type: cell-based, human; conditions: TGF-β1 stimulation, 24 hours; FIG. 4
Experimental: Human primary hepatic stellate cells were seeded into 6-well plates with complete growth media (Stellate Cell Medium) for 24 hours, and then the culture media were replaced by fresh media (free of serum and growth factors) containing TGF-β1 and the compound to be tested (sodium chiglitazar) or the reference compound PPARγ/α dual agonist pioglitazone or PPARα/δ dual agonist GFT505 (both purchased from Selleck), and the cells were cultured for 24 hours. The total RNAs of the samples were extracted, and reverse transcription reaction was performed. Thereafter, a conventional PCR amplification kit (FastStart Universal SYBR@ Green Master (ROX), Roche) was used for further detection, where the PCR primers were designed with reference to the NCBI standard mRNA sequence of the target genes (Table 2). PCR reaction and detection were carried out on the ABI StepOnePlus real-time quantitative PCR instrument. By calculating the relative amount of transcripts was calculate by “Delta-Delta CT method” (Livak et al. Methods 2001), and using ACTB as the housekeeping gene for normalization and the average data of untreated human hepatic stellate cells as a reference control, the relative change folds of gene expression were obtained (FIG. 4).

PPARδ = target: T1, PPARδ (Homo sapiens, UniProt Q03181); assay: PPAR reporter gene model in L-02 cells, PPARδ; type: cell-based; conditions: luciferase reporter, 24 hours drug, read-out: Half-maximal activation concentration of reporter gene AC50, PPARδ
T1 construct: expressed in transfected cells; host or cells: human hepatocyte cell line L-02
T1 sequence (Q03181 1-441): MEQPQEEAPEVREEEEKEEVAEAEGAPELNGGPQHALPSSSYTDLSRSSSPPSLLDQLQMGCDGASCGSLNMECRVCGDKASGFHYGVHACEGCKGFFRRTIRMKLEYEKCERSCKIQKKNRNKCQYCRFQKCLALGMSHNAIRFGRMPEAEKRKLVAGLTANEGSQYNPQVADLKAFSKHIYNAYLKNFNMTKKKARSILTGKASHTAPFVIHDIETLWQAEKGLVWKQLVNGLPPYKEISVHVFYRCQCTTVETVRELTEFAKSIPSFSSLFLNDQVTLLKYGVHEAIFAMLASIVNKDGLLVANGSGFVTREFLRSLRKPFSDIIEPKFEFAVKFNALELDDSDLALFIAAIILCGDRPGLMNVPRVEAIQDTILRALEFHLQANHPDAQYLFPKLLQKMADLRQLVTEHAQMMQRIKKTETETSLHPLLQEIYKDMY
T1 sequence (P19793 1-462 partner): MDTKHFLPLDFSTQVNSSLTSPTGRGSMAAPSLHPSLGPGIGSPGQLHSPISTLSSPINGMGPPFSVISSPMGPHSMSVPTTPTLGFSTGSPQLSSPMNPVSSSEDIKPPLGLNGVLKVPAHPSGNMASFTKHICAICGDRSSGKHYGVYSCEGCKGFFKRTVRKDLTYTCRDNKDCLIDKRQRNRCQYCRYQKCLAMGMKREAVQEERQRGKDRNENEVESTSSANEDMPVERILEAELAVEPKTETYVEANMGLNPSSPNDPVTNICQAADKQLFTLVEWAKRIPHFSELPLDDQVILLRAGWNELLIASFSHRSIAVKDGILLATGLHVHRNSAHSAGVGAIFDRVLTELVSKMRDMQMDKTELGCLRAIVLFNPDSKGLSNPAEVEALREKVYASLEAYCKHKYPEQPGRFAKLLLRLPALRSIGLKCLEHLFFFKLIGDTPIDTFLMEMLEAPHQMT
Experimental: (§1) The PPAR reporter gene model comprises three subtypes of expression plasmids, RXR expression plasmid, plasmid with luciferase reporter gene, and GFP expression plasmid as an external reference. The human hepatocyte cell line L-02 cells were seeded into 96-well plates at the density of 15,000 cells/well with about 50% plating rate, followed by culturing for 24 hours at 37° C. […] The fluorescence intensity (at wavelength 485-527 nm) of green fluorescent protein (GFP) in each well was firstly detected as an internal standard by a fluorescence detector, and then 30 μL of luciferase substrates (Promega, E151A) were added to each well. After slightly shaking to mix well, the […] were detected. The relative reporter gene activation intensity was obtained by the ratio of the fluorescence detection signal of the drugs to be tested to that of the solvent control, with both the signals normalized to the internal standard GFP signal. The half-maximal activation (AC50) of the drugs to be tested was calculated with the activity at various concentrations (shown in Table 1).

PPARα = target: T2, PPARα (Homo sapiens, UniProt Q07869); assay: PPAR reporter gene model in L-02 cells, PPARα; type: cell-based; conditions: luciferase reporter, 24 hours drug, read-out: Half-maximal activation concentration of reporter gene AC50, PPARα
T2 construct: expressed in transfected cells; host or cells: human hepatocyte cell line L-02
T2 sequence (Q07869 1-468): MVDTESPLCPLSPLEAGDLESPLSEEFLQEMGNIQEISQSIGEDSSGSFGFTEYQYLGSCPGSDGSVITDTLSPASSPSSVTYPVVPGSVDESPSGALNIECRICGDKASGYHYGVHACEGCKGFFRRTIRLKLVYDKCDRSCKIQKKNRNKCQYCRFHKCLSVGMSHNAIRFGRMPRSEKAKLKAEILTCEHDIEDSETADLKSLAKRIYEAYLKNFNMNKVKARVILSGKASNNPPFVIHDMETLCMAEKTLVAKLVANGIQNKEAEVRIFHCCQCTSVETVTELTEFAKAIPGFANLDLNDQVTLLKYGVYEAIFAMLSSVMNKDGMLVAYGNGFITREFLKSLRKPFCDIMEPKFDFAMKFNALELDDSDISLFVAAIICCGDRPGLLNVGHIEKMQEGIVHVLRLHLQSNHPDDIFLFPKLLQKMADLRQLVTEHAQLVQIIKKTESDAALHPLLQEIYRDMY
Experimental: as §1

O=C(c1ccc(F)cc1)c1ccccc1N[C@@H](Cc1ccc(OCCn2c3ccccc3c3ccccc32)cc1)C(=O)[O-].[Na+] [sodium chiglitazar]
Effect on expression of α-smooth muscle actin [1]: significantly inhibited
AC50 (PPARδ): 708 nM
AC50 (PPARα): 1100 nM
